PMC9365377 (Clinical Cancer Research, 2022)
Entries after “also recorded” stand apart in the source; their conditions may differ. Read-outs that look alike come from different tables or passages of the source.

Key:
[1] = system: patients with NRAS-mutant melanoma; test: Phase Ib dose escalation: DLTs in cycle 1, MTD/RP2D determination; format: in vivo, human; settings: 28-day schedule
Plasma pharmacokinetics = format: in vivo, human; settings: for Tmax: steady state; for Cmax: human, Cmax at steady state, geometric mean (geometric %CV)
[2] = phase I study; cited from earlier work
[3] = system: advanced, previously untreated, unresectable, stage IIIC or IV NRAS-mutant melanoma; settings: cited from earlier work
[4] = phase I study, 3 weeks on/1 week off; cited from earlier work
[5] = binimetinib 45 mg twice daily + ribociclib 200 mg once daily, 28-day schedule, 11 subjects
[6] = binimetinib 45 mg orally twice daily or dacarbazine 1,000 mg/m^2 intravenously every 3 weeks, 402 patients
[7] = patients who received prior immunotherapy

Row | SMILES | RP2D (in the combination) ([1]; continuous dosing) [mg twice daily] | AUCtau at steady state, geometric mean (geometric %CV) (Plasma pharmacokinetics; binimetinib 45 mg twice daily + ribociclib 200 mg once daily, 28-day schedule, 11 subjects, plasma) | Tmax (Plasma pharmacokinetics; [5]) | recommended phase II dose (RP2D), single agent [2] [mg twice daily] | PFS HR, binimetinib vs dacarbazine ([3]; 95% CI, 0.47–0.80, one-sided P < 0.001) | OS HR, binimetinib vs dacarbazine ([3]; 95% CI, 0.75–1.33, one-sided P = 0.50) | median PFS [3, 6] [months] | median PFS [3, 7] [months] | RP2D (in the combination) ([1]; 21 days on/7 days off) [mg once daily] | Dose proportionality of steady-state exposures (Plasma pharmacokinetics; dose-escalation range of 200 to 600 mg once daily) | Cmax (Plasma pharmacokinetics; plasma, 600 mg ribociclib coadministered with binimetinib, 21-day cycle) [ng/mL] | Cmax (Plasma pharmacokinetics; plasma, binimetinib 45 mg twice daily + ribociclib 200 mg once daily, 28-day schedule, 11 subjects, plasma) [ng/mL] | recommended dose for expansion, single agent [4] [mg/day]
1 | Cn1cnc2c(F)c(Nc3ccc(Br)cc3F)c(C(=O)NOCCO)cc21 [binimetinib] | 45 | 2,250 (37.7%) hour*ng/mL | about 1.00 hour postdose | 45 | 0.62 | 1.00 | 2.8 | 5.5 |  |  |  |  | 
2 | CN(C)/N=N/c1[nH]cnc1C(N)=O [dacarbazine] |  |  |  |  |  |  | 1.5 | 1.6 |  |  |  |  | 
3 | CN(C)C(=O)c1cc2cnc(Nc3ccc(N4CCNCC4)cn3)nc2n1C1CCCC1 [ribociclib] |  |  | about 2.25 hour postdose |  |  |  |  |  | 200 | increased greater than dose proportionally; also recorded: greater than dose proportional | 1910 | 220 | 600
